Experimental data reported in patent US20240246979A1, “cGAS INHIBITORS” (Eli Lilly and Company, priority 2022, published 2024).

What was measured:
cGAS [1] = biological target: T1, cGAS (Homo sapiens, UniProt Q8N884); assay: In vitro inhibition assay of cGAS activity (cGAMP production, RapidFire mass spectrometry); format: biochemical; design: Insert cDNA encoding full-length of human cGAS; His6; made in house; host or cells: E. coli BL21(DE3); conditions: 10 nM recombinant human cGAS, 60 nM 75-bp dsDNA, 50 μM ATP, 50 μM GTP, 3 hrs
Summary of the method: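 His6-tagged full-length human cGAS (10 nM, E. coli-expressed) was incubated for 3 hrs at ambient temperature with 60 nM 75-bp dsDNA, 50 μM ATP and 50 μM GTP in Tris pH 7.5/MgCl2 buffer with compound dilutions. cGAMP was quantified by RapidFire mass spectrometry against an internal standard, and IC50 was obtained by 4-parameter logistic fit.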

cGAS [2] = biological target: T1, cGAS; assay: Cellular assay to measure cGAS activity (IFNb AlphaLISA in THP1 cells stimulated by RDG-Adenovirus-GFP); format: cell-based; design: host or cells: THP1 cells differentiated with PMA and stimulated with RDG-Adenovirus-GFP; conditions: PMA-differentiated THP1 cells, RDG-Adenovirus-GFP at 1000 MOI; inhibition of IFNb production as marker for cGAS activity
Summary of the method: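 PMA-differentiated THP1 cells were infected with RDG-Adenovirus-GFP at 1000 MOI for 4 h, then exposed overnight to test compounds. IFNb in the supernatant was quantified by AlphaLISA as a cGAS activity marker, and IC50 was fitted with a 4-parameter logistic equation.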

T1 sequence (Q8N884 whole entry): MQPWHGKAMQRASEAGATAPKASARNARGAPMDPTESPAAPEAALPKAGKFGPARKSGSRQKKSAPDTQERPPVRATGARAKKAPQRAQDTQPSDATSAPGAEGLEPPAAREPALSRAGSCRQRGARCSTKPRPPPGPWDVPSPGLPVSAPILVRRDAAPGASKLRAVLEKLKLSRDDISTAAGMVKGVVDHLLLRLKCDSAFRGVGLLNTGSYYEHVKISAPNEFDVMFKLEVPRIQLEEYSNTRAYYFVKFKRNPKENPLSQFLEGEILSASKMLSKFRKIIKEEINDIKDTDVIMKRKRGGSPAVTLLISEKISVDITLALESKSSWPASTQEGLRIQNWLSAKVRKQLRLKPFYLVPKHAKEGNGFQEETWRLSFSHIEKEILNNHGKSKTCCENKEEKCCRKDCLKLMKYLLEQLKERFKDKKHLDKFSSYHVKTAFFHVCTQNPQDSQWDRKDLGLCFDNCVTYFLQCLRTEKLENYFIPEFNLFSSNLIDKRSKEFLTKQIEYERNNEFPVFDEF

Row | SMILES | IC50 (cGAS [1]) [nM] | IC50 (cGAS [2]) [nM]
1 | CC(C)(O)C[C@@H]1CNC(=O)Cc2c1[nH]c1c(Cl)c(Cl)cc(CC#N)c21 (single isomer, unassigned) [Example 107] | 12.5 | 649
2 | O=C1Cc2c([nH]c3c(Cl)c(Cl)cc(-c4cnco4)c23)CCN1 [Example 27, 7,8-Dichloro-10-(oxazol-5-yl)-3,4,5,6-tetrahydroazepino[4,5-b]indol-2(1H)-one] | 110 | > 10000
3 | C[C@@H](O)CNc1cc(Cl)c(Cl)c2c1c1c(n2C)CCNC(=O)[C@@H]1C (single isomer, unassigned) [Example 98] | 42.4 | 2180
4 | CN(C)CCC1CNC(=O)Cc2c1[nH]c1c(Cl)c(Cl)cc(-c3cnn(C)n3)c21 (stereo not drawn) [Example 118, 7,8-Dichloro-5-(2-(dimethylamino)ethyl)-10-(2-methyl-2H-1,2,3-triazol-4-yl)-3,4,5,6-tetrahydroazepino[4,5-b]indol-2(1H)-one] | 42.4 | 577
5 | Cn1c2c(c3c(OCC#N)cc(Cl)c(Cl)c31)CC(=O)NC[C@H]2CCO (single isomer, unassigned) [Example 125] | 18 | 272
6 | CC1C(=O)NCCc2[nH]c3c(Cl)c(Cl)cc(OCCO)c3c21 (stereo not drawn) [Example 18, 7,8-Dichloro-10-(2-hydroxyethoxy)-1-methyl-3,4,5,6-tetrahydroazepino[4,5-b]indol-2(1H)-one] | 70.9 | 2070
7 | COCCOc1cc(Cl)c(Cl)c2[nH]c3c(c12)[C@H](C)C(=O)NCC3 (single isomer, unassigned) [Example 81] | 1200 | 7060
8 | C[C@@H](O)CNc1cc(Cl)c(Cl)c2[nH]c3c(c12)[C@@H](C)C(=O)NCC3 (single isomer, unassigned) [Example 55] | 46.5 | 1920
9 | CC(F)(F)C[C@@H]1CNC(=O)Cc2c1[nH]c1c(Cl)c(Cl)cc(CC#N)c21 (single isomer, unassigned) [Example 139] | 824 | 4610
10 | C[C@H](O)C(=O)Nc1cc(Cl)c(Cl)c2[nH]c3c(c12)[C@@H](C)C(=O)NCC3(C)C (single isomer, unassigned) [Example 181, (S)—N—((R)-7,8-Dichloro-1,5,5-trimethyl-2-oxo-1,2,3,4,5,6-hexahydroazepino[4,5-b]indol-10-yl)-2-hydroxypropanamide or (S)—N—((S)-7,8-dichloro-1,5,5-trimethyl-2-oxo-1,2,3,4,5,6-hexahydroazepino[4,5-b]indol-10-yl)-2-hydroxypropanamide] | > 39800 | > 10000
11 | C[C@H]1C(=O)NCCc2[nH]c3c(Cl)c(Cl)cc(CC#N)c3c21 (single isomer, unassigned) [Example 90] | 552 | 993
12 | Nc1cncc(-c2cc(Cl)c(Cl)c3[nH]c4c(c23)CC(=O)NCC4)n1 [Example 34, 10-(6-Aminopyrazin-2-yl)-7,8-dichloro-3,4,5,6-tetrahydroazepino[4,5-b]indol-2(1H)-one] | 39.5 | 1730
13 | C[C@@H]1C(=O)NCCc2[nH]c3c(Cl)c(Cl)cc(OCC(N)=O)c3c21 (single isomer, unassigned) [Example 17B] | 1540 | 4080
14 | COCCNc1cc(Cl)c(Cl)c2c1c1c(n2C(F)F)CCNC(=O)C1C (stereo not drawn) [Example 141, 7,8-Dichloro-6-(difluoromethyl)-10-((2-methoxyethyl)amino)-1-methyl-3,4,5,6-tetrahydroazepino[4,5-b]indol-2(1H)-one] | 35.4 | 2440
15 | C[C@@H]1C(=O)NCCc2[nH]c3c(Cl)c(Cl)cc(OCCCO)c3c21 (single isomer, unassigned) [Example 14B] | 302 | 4450
16 | C[C@@H]1C(=O)NCCc2[nH]c3c(Cl)c(Cl)cc(OCc4cocn4)c3c21 (single isomer, unassigned) [Example 179, (S)-7,8-Dichloro-1-methyl-10-(oxazol-4-ylmethoxy)-3,4,5,6-tetrahydroazepino[4,5-b]indol-2(1H)-one or (R)-7,8-dichloro-1-methyl-10-(oxazol-4-ylmethoxy)-3,4,5,6-tetrahydroazepino[4,5-b]indol-2(1H)-one] | 2120 | > 10000
17 | C[C@@H](O)CNc1cc(Cl)c(Cl)c2c1c1c(n2C)CCNC(=O)[C@@H]1C (single isomer, unassigned) [Example 101] | 1260 | > 10000
18 | C[C@@H]1CNC(=O)[C@@H](C)c2c1[nH]c1c(Cl)c(Cl)cc(CC#N)c21 (single isomer, unassigned) [Example 150] | 25.9 | 2120
19 | NC(=O)COc1cc(Cl)c(Cl)c2[nH]c3c(c12)CC(=O)NCC3 [Example 20, 2-((7,8-Dichloro-2-oxo-1,2,3,4,5,6-hexahydroazepino[4,5-b]indol-10-yl)oxy)acetamide] | 132 | > 10000
20 | C[C@H](O)COc1cc(Cl)c(Cl)c2[nH]c3c(c12)[C@H](C)C(=O)NCC3 (single isomer, unassigned) [Example 85] | 2770 | 7260

The next lines start with the values.

Row | IC50 (cGAS [1]) [nM] | IC50 (cGAS [2]) [nM] | SMILES
21 | 8.12 | 280 | COCCOc1cc(Cl)c(Cl)c2[nH]c3c(c12)[C@H](C)C(=O)NCC3 (single isomer, unassigned) [Example 80]
22 | 15 | 390 | CC1C(=O)NCCc2[nH]c3c(Cl)c(Cl)cc(NCCO)c3c21 (racemic) [Example 49, 7,8-Dichloro-10-((2-hydroxyethyl)amino)-1-methyl-3,4,5,6-tetrahydroazepino[4,5-b]indol-2(1H)-one]
23 | 34.4 | 1210 | Cn1ncc(-c2cc(Cl)c(Cl)c3c2c2c(n3C)C(CCO)CNC(=O)C2)n1 (stereo not drawn) [Example 127, 7,8-Dichloro-5-(2-hydroxyethyl)-6-methyl-10-(2-methyl-2H-1,2,3-triazol-4-yl)-3,4,5,6-tetrahydroazepino[4,5-b]indol-2(1H)-one]
24 | 16.5 | 577 | CC1C(=O)NCCc2[nH]c3c(Cl)c(Cl)cc(NCc4cocn4)c3c21 (stereo in doubt) [Example 58, (S′)-7,8-Dichloro-1-methyl-10-((oxazol-4-ylmethyl)amino)-3,4,5,6-tetrahydroazepino[4,5-b]indol-2(1H)-one Or (R)-7,8-Dichloro-1-methyl-10-((oxazol-4-ylmethyl)amino)-3,4,5,6-tetrahydroazepino[4,5-b]indol-2(1H)-one]
25 | 16.4 | 1280 | CC1C(=O)NCCc2c1c1c(NCCO)cc(Cl)c(Cl)c1n2C(F)F (racemic) [Example 140, 7,8-Dichloro-6-(difluoromethyl)-10-((2-hydroxyethyl)amino)-1-methyl-3,4,5,6-tetrahydroazepino[4,5-b]indol-2(1H)-one]
26 | 23.1 | 841 | Cn1ncc(-c2cc(Cl)c(Cl)c3[nH]c4c(c23)CC(=O)NCC4CCC(F)F)n1 (racemic) [Example 177, 7,8-Dichloro-5-(3,3-difluoropropyl)-10-(2-methyl-2H-1,2,3-triazol-4-yl)-3,4,5,6-tetrahydroazepino[4,5-b]indol-2(1H)-one]
27 | 13.6 | 217 | CC(O)CC1CNC(=O)Cc2c1n(C)c1c(Cl)c(Cl)cc(CC#N)c21 (mixture of isomers) [Example 128, 2-(7,8-Dichloro-5-(2-hydroxypropyl)-6-methyl-2-oxo-1,2,3,4,5,6-hexahydroazepino[4,5-b]indol-10-yl)acetonitrile]
28 | 11.9 | 716 | CC(O)CC1CNC(=O)Cc2c1[nH]c1c(Cl)c(Cl)cc(CC#N)c21 (stereo not drawn) [Example 120, 2-(7,8-Dichloro-5-(2-hydroxypropyl)-2-oxo-1,2,3,4,5,6-hexahydroazepino[4,5-b]indol-10-yl)acetonitrile]
29 | 15.6 | > 10000 | CNC(=O)CC1CNC(=O)Cc2c1[nH]c1c(Cl)c(Cl)cc(-c3cnn(C)n3)c21 (stereo not drawn) [Example 6, 2-(7,8-Dichloro-10-(2-methyl-2H-1,2,3-triazol-4-yl)-2-oxo-1,2,3,4,5,6-hexahydroazepino[4,5-b]indol-5-yl)-N-methylacetamide]
30 | 14.8 | 640 | Cn1ncc(-c2cc(Cl)c(Cl)c3c2c2c4n3CCC4CNC(=O)C2)n1 (stereo not drawn) [Example 116, 8,9-Dichloro-11-(2-methyl-2H-1,2,3-triazol-4-yl)-1,3,4,4a, 5,6-hexahydro-2H-azepino[3,4,5-gh]benzo[b]pyrrolizin-2-one]
31 | 18.6 | 1320 | CN(C)C(=O)CC1CNC(=O)Cc2c1[nH]c1c(Cl)c(Cl)cc(CC#N)c21 (stereo not drawn) [Example 117, 2-(7,8-Dichloro-10-(cyanomethyl)-2-oxo-1,2,3,4,5,6-hexahydroazepino[4,5-b]indol-5-yl)-N,N-dimethylacetamide]
32 | 24.7 | 663 | C[C@H](O)C(=O)Nc1cc(Cl)c(Cl)c2c1c1c(n2C)CCNC(=O)[C@H]1C (single isomer, unassigned) [Example 94]
33 | 22.4 | 856 | C[C@@H]1C(=O)NCCc2[nH]c3c(Cl)c(Cl)cc(OCC(N)=O)c3c21 (single isomer, unassigned) [Example 17A]
